Calls of active or inactive are those of the source.
Experiments:
Estrogen receptor = biological target: T1, Estrogen receptor (Homo sapiens, UniProt P03372);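 further: potency for inhibiting coactivator peptide recruitment to the receptor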
T1 sequence (P03372 whole entry): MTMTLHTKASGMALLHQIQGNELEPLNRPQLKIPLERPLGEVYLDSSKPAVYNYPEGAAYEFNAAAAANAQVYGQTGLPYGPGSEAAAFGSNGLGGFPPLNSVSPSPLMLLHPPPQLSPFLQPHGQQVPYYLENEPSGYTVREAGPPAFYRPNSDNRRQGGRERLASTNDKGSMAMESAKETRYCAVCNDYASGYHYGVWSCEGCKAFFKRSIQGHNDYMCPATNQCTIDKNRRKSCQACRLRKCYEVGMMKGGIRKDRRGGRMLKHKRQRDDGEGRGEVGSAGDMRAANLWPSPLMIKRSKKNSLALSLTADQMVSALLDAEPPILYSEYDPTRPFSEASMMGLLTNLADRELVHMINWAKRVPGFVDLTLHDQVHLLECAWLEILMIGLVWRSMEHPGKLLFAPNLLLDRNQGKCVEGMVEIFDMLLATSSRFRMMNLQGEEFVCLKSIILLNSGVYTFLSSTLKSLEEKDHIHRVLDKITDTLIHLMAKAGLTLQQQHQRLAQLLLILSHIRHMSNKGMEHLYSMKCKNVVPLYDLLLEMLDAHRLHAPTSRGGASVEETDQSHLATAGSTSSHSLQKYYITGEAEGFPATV

[1] = biological target: T2, Small ubiquitin-related modifier 1 (Homo sapiens, UniProt P63165); experiment: inhibitors of SUMO1 peptide binding, dose response, biochemical, fluorescence polarization, uHTS hits (AID 624382); assay type: functional; conditions: read-out: IC50_Mean
T2 sequence (P63165 whole entry): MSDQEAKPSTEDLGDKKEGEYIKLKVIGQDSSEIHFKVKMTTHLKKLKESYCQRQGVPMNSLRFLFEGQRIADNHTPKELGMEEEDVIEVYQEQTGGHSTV

[2] = biological target: T2, Small ubiquitin-related modifier 1; experiment: inhibitors of SUMO1 partner interactions, dose response, biochemical, FRET (AID 624383); assay type: functional; conditions: read-out: IC50_Mean
[3] = biological target: T3, Corticotropin-releasing factor receptor 2/Corticotropin-releasing factor-binding protein (Homo sapiens, UniProt P24387+Q13324); experiment: activators of CRF receptor 2 with binding protein – uHTS hits, confirmation (AID 602473); assay type: functional; conditions: read-out: EC50_Mean
T3 sequence (Q13324 whole entry): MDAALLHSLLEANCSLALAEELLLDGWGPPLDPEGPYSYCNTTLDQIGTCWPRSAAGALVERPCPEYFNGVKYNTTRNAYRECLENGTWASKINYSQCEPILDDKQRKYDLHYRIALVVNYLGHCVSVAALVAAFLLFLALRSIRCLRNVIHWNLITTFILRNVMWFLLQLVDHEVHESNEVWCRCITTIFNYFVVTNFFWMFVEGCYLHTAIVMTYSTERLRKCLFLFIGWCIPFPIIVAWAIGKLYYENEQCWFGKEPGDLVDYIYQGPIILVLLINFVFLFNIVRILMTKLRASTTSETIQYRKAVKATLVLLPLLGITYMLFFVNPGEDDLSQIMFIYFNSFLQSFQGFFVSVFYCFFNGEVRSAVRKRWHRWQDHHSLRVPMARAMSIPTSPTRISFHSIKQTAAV
T3 sequence (P24387 whole entry): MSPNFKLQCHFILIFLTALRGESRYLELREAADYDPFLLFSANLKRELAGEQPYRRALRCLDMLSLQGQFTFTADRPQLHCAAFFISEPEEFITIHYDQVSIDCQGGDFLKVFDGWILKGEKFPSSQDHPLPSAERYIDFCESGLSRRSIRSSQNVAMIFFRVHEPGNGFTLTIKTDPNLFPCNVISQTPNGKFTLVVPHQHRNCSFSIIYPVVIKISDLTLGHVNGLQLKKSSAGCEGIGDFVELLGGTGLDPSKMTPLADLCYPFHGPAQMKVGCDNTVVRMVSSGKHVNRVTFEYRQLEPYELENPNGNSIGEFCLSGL

[4] = CRF-BP/CRF-R2 complex antagonists, dose response, cell-based, uHTS hits, 384-well (AID 651639); assay type: functional, Homo sapiens; conditions: read-out: IC50_Mean
[5] = biological target: T3, Corticotropin-releasing factor receptor 2/Corticotropin-releasing factor-binding protein; experiment: Dose Response confirmation of uHTS hits for small molecule antagonists of the CRF-binding protein and CRF-R2 receptor complex.; assay type: functional; conditions: read-out: IC50_Mean

| SMILES | IC50 (Estrogen receptor) | IC50 [1] | IC50 [2] | EC50 [3] | IC50 [4] | IC50 [5] |
| --- | --- | --- | --- | --- | --- | --- |
| Cc1ccc(-n2nnnc2SCC(=O)Nc2ccc3c(c2)COC3=O)cc1C | 27.1 µM (active) | > 66.6 µM (inactive) | 8.2 µM (active) |  |  |  |
| Cc1cc(C)cc(N(C(=O)c2nsc(Cl)c2Cl)C(C(=O)NC2CCCC2)c2ccc(O)cc2)c1 (stereo unspecified) |  |  |  | > 53 µM (inactive) | > 20 µM (inactive) | 6.02 µM (active) |
